pIC50: −log10 of the molar value.
Legend:
human SGLT1 = target: T1, human SGLT1 (Homo sapiens, UniProt P13866); experiment: Cell-based assay for sodium-dependent glucose transport (14C-AMG uptake), CHOK-SGLT1; conditions: CHO-K1 cells stably expressing human SGLT1; for pIC50: Na-dependent 14C-AMG uptake; for inhibition at 10 µM: 10 μM compound, read-out: CHOK-SGLT1 % Inh. @ 10 μM
T1 construct: expressed in transfected cells
T1 sequence (P13866 1-664): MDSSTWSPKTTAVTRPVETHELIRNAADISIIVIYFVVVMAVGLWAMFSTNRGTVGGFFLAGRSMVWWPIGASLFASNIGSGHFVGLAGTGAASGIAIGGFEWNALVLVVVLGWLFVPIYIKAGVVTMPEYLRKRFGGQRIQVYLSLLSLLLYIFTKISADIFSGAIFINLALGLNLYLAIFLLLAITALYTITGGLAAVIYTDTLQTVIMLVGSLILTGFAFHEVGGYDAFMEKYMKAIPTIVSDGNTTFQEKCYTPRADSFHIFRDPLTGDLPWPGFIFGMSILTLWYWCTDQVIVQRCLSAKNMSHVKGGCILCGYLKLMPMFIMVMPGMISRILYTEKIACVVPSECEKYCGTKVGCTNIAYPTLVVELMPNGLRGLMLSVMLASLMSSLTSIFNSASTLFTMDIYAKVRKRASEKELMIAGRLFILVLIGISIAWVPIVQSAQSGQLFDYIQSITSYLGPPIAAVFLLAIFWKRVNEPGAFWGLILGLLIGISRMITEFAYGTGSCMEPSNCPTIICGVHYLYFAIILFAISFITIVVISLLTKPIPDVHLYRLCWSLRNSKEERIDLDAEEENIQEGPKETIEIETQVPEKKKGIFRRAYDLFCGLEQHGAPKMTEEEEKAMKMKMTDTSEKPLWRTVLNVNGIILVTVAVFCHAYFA
Procedure: (§1) Cloning of the human SGLT1 and human SGLT2 cDNAs and construction of the mammalian expression vector: The human SGLT1 cDNA (Genbank M24847) was cloned from human small intestine. Human SGLT2 cDNA (Genbank M95549) was cloned from human kidney. Both full cDNAs were subcloned into pcDNA and sequenced to verify the integrity of the construct.
(§2) Generation of CHO-K1 cells stably expressing human SGLT1 or human SGLT2: Transfection of CHO-K1 cells was performed using DMRIE-C reagent (Life Technologies, Gaithersburg, Md.). Transfectants were then selected in the presence of the antibiotic G418 (Gibco-BRL, Grand Island, N.Y.) at 400 μg/ml. Individual clones were then characterized using the functional assay described below.
(§3) Cell-based assay for sodium-dependent glucose transport: Cell lines stably expressing human SGLT1 or SGLT2 were then used for functional analysis of Na+-dependent glucose uptake. Briefly, cells were plated at a density of 65,000 cells per well in a 96-well plate and allowed to grow for 48 hours. Cells were subsequently washed one time with Assay Buffer (50 mM HEPES pH […], 5 mM KCl, 1 mM MgCl2, 1 mM CaCl2 and 137 mM NaCl) and treated with compound in the absence or presence of NaCl for 15 minutes. Cells were then labeled with ^14C-α-methylglucopyranoside (AMG, Sigma, St. Louis, Mo.), a non-metabolizable glucose analog specific for sodium-dependent glucose transporters as previously described (Peng, H. and Lever J. E. Post-transcriptional regulation of Na^+/glucose cotransporter (SGLT1) gene expression in LLC-PK1 cells. J Biol Chem 1995; 270:20536-20542.). After 2 hours the labeled cells were washed three times with ice-cold PBS. After aspiration, cells were solubilized using Microscint 20 (Packard, Meriden, Conn.) and Na-dependent ^14C-AMG uptake was quantified by measuring radioactivity. Plates were counted in a TopCount (Packard, Meriden, Conn.). Results are reported as the % inhibition or IC50 value from a representative experiment. Variability for the functional assay was typically within 20%.

human SGLT2 = target: T2, human SGLT2 (Homo sapiens, UniProt P31639); experiment: Cell-based assay for sodium-dependent glucose transport (14C-AMG uptake), CHOK-SGLT2; conditions: CHO-K1 cells stably expressing human SGLT2; for pIC50: Na-dependent 14C-AMG uptake; for inhibition at 10 µM: 10 μM compound, read-out: CHOK-SGLT2 % Inh. @ 10 μM
T2 construct: expressed in transfected cells
T2 sequence (P31639 1-672): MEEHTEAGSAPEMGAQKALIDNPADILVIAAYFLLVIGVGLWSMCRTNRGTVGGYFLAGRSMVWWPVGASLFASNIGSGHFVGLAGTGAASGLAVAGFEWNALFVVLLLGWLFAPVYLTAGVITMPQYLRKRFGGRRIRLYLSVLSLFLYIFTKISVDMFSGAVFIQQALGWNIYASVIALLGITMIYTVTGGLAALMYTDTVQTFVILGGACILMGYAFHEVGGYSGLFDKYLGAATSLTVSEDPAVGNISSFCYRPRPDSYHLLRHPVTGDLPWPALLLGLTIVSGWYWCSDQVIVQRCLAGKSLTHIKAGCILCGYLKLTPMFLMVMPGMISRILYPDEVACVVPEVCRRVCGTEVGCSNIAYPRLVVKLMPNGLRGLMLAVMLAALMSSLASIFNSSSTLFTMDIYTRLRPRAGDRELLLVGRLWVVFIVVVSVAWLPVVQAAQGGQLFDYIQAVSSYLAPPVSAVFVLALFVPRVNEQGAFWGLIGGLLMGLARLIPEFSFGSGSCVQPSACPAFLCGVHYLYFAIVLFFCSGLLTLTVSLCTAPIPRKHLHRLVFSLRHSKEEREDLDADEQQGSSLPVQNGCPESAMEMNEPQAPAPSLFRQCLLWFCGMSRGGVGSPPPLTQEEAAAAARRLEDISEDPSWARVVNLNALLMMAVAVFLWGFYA
Procedure: as §1, §2, §3

Row | SMILES | pIC50 (human SGLT1) | pIC50 (human SGLT2) | inhibition at 10 µM (human SGLT1) | inhibition at 10 µM (human SGLT2) | inhibition at 1 µM (human SGLT2; 1 μM compound, read-out: CHOK-SGLT2 % Inh. @ 1 μM)
1 | OC[C@H]1O[C@@H](Oc2cccc3[nH]cc(CCc4ccc5c(c4)CCO5)c23)[C@H](O)[C@@H](O)[C@@H]1O [Example 1, 2-{3-[2-(2,3-Dihydro-benzofuran-5-yl)-ethyl]-1H-indol-4-yloxy} β-D-glucopyranoside] | 6.83 | 7.70 | – | – | –
2 | CCc1ccc(CCc2c[nH]c3cccc(O[C@@H]4O[C@H](CO)[C@@H](O)[C@H](O)[C@H]4O)c23)cc1 [Example 9, 2-{3-[2-(4-Ethyl-phenyl)-ethyl]-1H-indol-4-yloxy}-β-D-glucopyranoside] | – | – | 46% | – | 50%
3 | Cn1cc(CCc2ccc3c(c2)CCO3)c2c(O[C@@H]3O[C@H](CO)[C@@H](O)[C@H](O)[C@H]3O)cccc21 [Example 3, 2-{3-[2-(2,3-Dihydro-benzofuran-5-yl)-ethyl]-1-methyl-1H-indol-4-yloxy} β-D-glucopyranoside] | 6.71 | 7.21 | – | – | –
4 | CC(=O)OC[C@H]1O[C@@H](Oc2cccc3[nH]cc(CCc4ccc5c(c4)CCO5)c23)[C@H](O)[C@@H](O)[C@@H]1O [Example 2, 2-{3-[2-(2,3-Dihydro-benzofuran-5-yl)-ethyl]-1H-indol-4-yloxy}-6-O-acetyl β-D-glucopyranoside] | 5.87 | 6.80 | – | – | –
5 | OC[C@H]1O[C@@H](Oc2cccc3[nH]cc(Cc4ccc(-c5ccccc5)cc4)c23)[C@H](O)[C@@H](O)[C@@H]1O [Example 19, 2-(3-Biphenyl-4-ylmethyl-1H-indol-4-yloxy)-β-D-glucopyranoside] | – | 7.00 | 63% | – | –
6 | Cc1ccc(Cc2c[nH]c3cccc(O[C@@H]4O[C@H](CO)[C@@H](O)[C@H](O)[C@H]4O)c23)cc1 [Example 15, 2-[3-(4-Methyl-benzyl)-1H-indol-4-yloxy]-β-D-glucopyranoside] | 5.41 | 7.28 | – | – | –
7 | OC[C@H]1O[C@@H](Oc2cccc3[nH]cc(Cc4ccc(-c5ccccc5)c(F)c4)c23)[C@H](O)[C@@H](O)[C@@H]1O [Example 20, 2-[3-(2-Fluoro-biphenyl-4-ylmethyl)-1H-indol-4-yloxy]-β-D-glucopyranoside] | – | 6.94 | 35% | – | –

More lines, now with the values ahead:

Row | pIC50 (human SGLT1) | pIC50 (human SGLT2) | inhibition at 10 µM (human SGLT1) | inhibition at 10 µM (human SGLT2) | inhibition at 1 µM (human SGLT2; 1 μM compound, read-out: CHOK-SGLT2 % Inh. @ 1 μM) | SMILES
8 | – | 5.73 | 30% | – | – | OC[C@H]1O[C@@H](Oc2cccc3[nH]cc(Cc4ccc5c(c4)CCO5)c23)[C@H](O)[C@@H](O)[C@@H]1O [Example 30, 2-[3-(2,3-Dihydro-benzofuran-5-ylmethyl)-1H-indol-4-yloxy]-β-D-glucopyranoside]
9 | – | 5.30 | 27% | – | – | Cc1ccsc1Cc1c[nH]c2cccc(O[C@@H]3O[C@H](CO)[C@@H](O)[C@H](O)[C@H]3O)c12 [Example 34]
10 | – | – | 16% | 52% | – | CCc1ccc(Cc2c(C)[nH]c3cccc(O[C@@H]4O[C@H](CO)[C@@H](O)[C@H](O)[C@H]4O)c23)cc1 [Example 36, 2-[3-(4-Ethyl-benzyl)-2-methyl-1H-indol-4-yloxy]-β-D-glucopyranoside]
11 | 5.88 | 7.59 | – | – | – | CSc1ccc(Cc2c[nH]c3cccc(O[C@@H]4O[C@H](CO)[C@@H](O)[C@H](O)[C@H]4O)c23)cc1 [Example 27, 2-[3-(4-Methylsulfanyl-benzyl)-1H-indol-4-yloxy]-β-D-glucopyranoside]
12 | 5.95 | 6.93 | – | – | – | COc1ccc(Cc2c[nH]c3cccc(O[C@@H]4O[C@H](CO)[C@@H](O)[C@H](O)[C@H]4O)c23)cc1 [Example 22, 2-[3-(4-Methoxy-benzyl)-1H-indol-4-yloxy]-β-D-glucopyranoside]
13 | – | 6.93 | 30% | – | – | CCc1ccc(Cc2c[nH]c3cc(C)cc(O[C@@H]4O[C@H](CO)[C@@H](O)[C@H](O)[C@H]4O)c23)cc1 [Example 32, 2-[3-(4-Ethyl-benzyl)-6-methyl-1H-indol-4-yloxy]-β-D-glucopyranoside]
14 | – | 6.59 | 68% | – | – | OC[C@H]1O[C@@H](Oc2cccc3[nH]cc(Cc4ccc5ccccc5c4)c23)[C@H](O)[C@@H](O)[C@@H]1O [Example 29, 2-(3-Naphthalen-2-ylmethyl-1H-indol-4-yloxy)-β-D-glucopyranoside]
15 | – | 6.69 | 79% | – | – | COc1ccc(Cc2c[nH]c3cccc(O[C@@H]4O[C@H](CO)[C@@H](O)[C@H](O)[C@H]4O)c23)cc1F [Example 24, 2-[3-(3-Fluoro-4-methoxy-benzyl)-1H-indol-4-yloxy]-D-glucopyranoside]
16 | – | – | 7% | 22% | – | CCc1ccc(C(=O)c2c[nH]c3cccc(O[C@@H]4O[C@H](CO)[C@@H](O)[C@H](O)[C@H]4O)c23)cc1 [Example 38, 2-[3-(4-Ethylbenzoyl)-1H-indol-4-yloxy]-β-D-glucopyranoside]

— patent US7820630B2, “Substituted indole-O-glucosides” (Janssen Pharmaceutica NV, priority 2003, dated 2010)
